Experimental data taken from patent US10722514B2 (FLX Bio, Inc., priority 2017, dated 2020).
Counter-ions that a name gives are not always drawn.

Target: T1, recombinant full-length USP7 (Homo sapiens, UniProt Q93009)
T1 construct: A 25 μl reaction volume containing recombinant full-length USP7 (62 pM)
Assay: USP7-mediated ubiquitin-rhodamine cleavage assay
Format: biochemical
Settings: recombinant full-length USP7 62 pM; ubiquitin-rhodamine 100 nM; 30-minute incubation with compound, 1 hour reaction at room temperature; read-out: Potency: USP7 IC50
Procedure, shortened: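 After compound and enzyme (62 pM) sat together 30 min at RT, 100 nM fluorogenic ubiquitin-rhodamine substrate was added for 1 h protected from light. Acetic acid quenched the reaction prior to the fluorescence read.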

T1 sequence (Q93009 whole entry): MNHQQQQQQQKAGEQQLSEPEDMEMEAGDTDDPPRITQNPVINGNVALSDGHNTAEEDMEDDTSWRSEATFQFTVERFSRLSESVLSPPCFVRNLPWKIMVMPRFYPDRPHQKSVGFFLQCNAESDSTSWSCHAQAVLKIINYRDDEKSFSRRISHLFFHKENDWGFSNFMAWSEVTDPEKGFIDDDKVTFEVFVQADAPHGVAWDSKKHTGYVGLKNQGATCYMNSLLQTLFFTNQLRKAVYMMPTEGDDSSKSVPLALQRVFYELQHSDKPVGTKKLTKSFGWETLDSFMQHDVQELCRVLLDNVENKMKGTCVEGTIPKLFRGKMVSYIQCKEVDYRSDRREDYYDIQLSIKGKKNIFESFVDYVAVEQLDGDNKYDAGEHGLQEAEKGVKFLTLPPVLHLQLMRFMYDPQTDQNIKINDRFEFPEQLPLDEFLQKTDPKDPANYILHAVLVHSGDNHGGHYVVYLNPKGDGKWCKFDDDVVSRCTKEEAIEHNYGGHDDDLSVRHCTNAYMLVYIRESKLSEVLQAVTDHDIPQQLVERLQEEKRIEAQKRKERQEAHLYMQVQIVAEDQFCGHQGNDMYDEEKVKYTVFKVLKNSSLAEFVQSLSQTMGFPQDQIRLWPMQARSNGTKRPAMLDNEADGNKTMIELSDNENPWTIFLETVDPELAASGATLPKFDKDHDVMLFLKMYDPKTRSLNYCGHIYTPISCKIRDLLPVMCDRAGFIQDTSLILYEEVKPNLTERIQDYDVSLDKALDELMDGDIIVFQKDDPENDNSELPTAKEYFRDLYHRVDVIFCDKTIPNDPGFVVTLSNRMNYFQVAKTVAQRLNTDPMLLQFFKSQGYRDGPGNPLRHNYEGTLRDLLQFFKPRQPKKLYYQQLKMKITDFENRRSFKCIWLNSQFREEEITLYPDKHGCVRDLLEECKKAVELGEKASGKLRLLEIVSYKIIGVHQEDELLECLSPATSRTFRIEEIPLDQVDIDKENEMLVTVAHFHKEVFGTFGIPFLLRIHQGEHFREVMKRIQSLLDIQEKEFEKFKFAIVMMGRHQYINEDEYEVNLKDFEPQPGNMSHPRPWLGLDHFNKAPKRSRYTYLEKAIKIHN

Cc1cc(Cl)cc(-c2ccnc3cc([C@H](C)N4C(=O)CCC4=O)sc23)c1O[C@@H]1CCNC[C@H]1F [Example 289, 1-[(1S)-1-[7-[5-chloro-2-[[(3R,4R)-3-fluoro-4-piperidyl]oxy]-3-methyl-phenyl]thieno[3,2-b]pyridin-2-yl]ethyl]pyrrolidine-2,5-dione; 2,2,2-trifluoroacetic acid] showed an IC50 of under 1 µM.
With COc1ccc(C(=O)O)cc1-c1ccnc2cc(Cn3c(=O)ccn(CC(F)(F)F)c3=O)sc12 [Example 290, 3-[2-[[2,6-dioxo-3-(2,2,2-trifluoroethyl)pyrimidin-1-yl]methyl]thieno[3,2-b]pyridin-7-yl]-4-methoxy-benzoic acid] the IC50 was 1 to 10 µM.
Work on Cc1cc(C(=O)O)cc(-c2ccnc3cc(Cn4c(=O)ccn(CC(F)(F)F)c4=O)sc23)c1O[C@H]1CCCNC1 [Example 291, 3-[2-[[2,6-dioxo-3-(2,2,2-trifluoroethyl)pyrimidin-1-yl]methyl]thieno[3,2-b]pyridin-7-yl]-5-methyl-4-[[(3S)-3-piperidyl]oxy]benzoic acid] yielded an IC50 of under 1 µM.
C[C@H]1CNCC[C@H]1Oc1ccccc1-c1ccnc2cc(Cn3c(=O)ccn(CC(F)(F)F)c3=O)sc12 [Example 292, 3-[[7-[2-[[(3S,4R)-3-methyl-4-piperidyl]oxy]phenyl]thieno[3,2-b]pyridin-2-yl]methyl]-1-(2,2,2-trifluoroethyl)pyrimidine-2,4-dione] showed an IC50 of under 1 µM.
In the case of Cc1cc(Cl)cc(-c2ccnc3cc(CN4C(=O)C5CC5C4=O)sc23)c1O[C@@H]1CCNC[C@H]1F (stereo partly drawn) [Example 293, 3-[[7-[5-chloro-2-[[(3R,4R)-3-fluoro-4-piperidyl]oxy]-3-methyl-phenyl]thieno[3,2-b]pyridin-2-yl]methyl]-3-azabicyclo[3.1.0]hexane-2,4-dione; 2,2,2-trifluoroacetic acid], the IC50 is reported as under 1 µM.
Compound Cc1cc(Cl)cc(-c2ccnc3cc(CN4C(=O)C5C(C4=O)C5(C)C)sc23)c1O[C@@H]1CCNC[C@H]1F (stereo partly drawn) [Example 294, 3-[[7-[5-chloro-2-[[(3R,4R)-3-fluoro-4-piperidyl]oxy]-3-methyl-phenyl]thieno[3,2-b]pyridin-2-yl]methyl]-6,6-dimethyl-3-azabicyclo[3.1.0]hexane-2,4-dione; 2,2,2-trifluoroacetic acid] has an IC50 of under 1 µM.
Work on Cc1cc(Cl)cc(-c2ccnc3cc(CN4C(=O)SC(C)(C)C4=O)sc23)c1O[C@H]1CCCNC1 [Example 295, 3-[[7-[5-chloro-3-methyl-2-[[(3S)-3-piperidyl]oxy]phenyl]thieno[3,2-b]pyridin-2-yl]methyl]-5,5-dimethyl-thiazolidine-2,4-dione; 2,2,2-trifluoroacetic acid] yielded an IC50 of under 1 µM.
Compound Cc1cc(Cl)cc(-c2ccnc3cc(CN4C(=O)C(C)C(C)C4=O)sc23)c1O[C@H]1CCCNC1 (stereo partly drawn) [Example 296, 1-[[7-[5-chloro-3-methyl-2-[[(3S)-3-piperidyl]oxy]phenyl]thieno[3,2-b]pyridin-2-yl]methyl]-3,4-dimethyl-pyrrolidine-2,5-dione; 2,2,2-trifluoroacetic acid] has an IC50 of under 1 µM.
Cc1cc(Cl)cc(-c2ccnc3cc(CN4C(=O)C5CCC5C4=O)sc23)c1O[C@H]1CCCNC1 (stereo partly drawn) [Example 297, 3-[[7-[5-chloro-3-methyl-2-[[(3S)-3-piperidyl]oxy]phenyl]thieno[3,2-b]pyridin-2-yl]methyl]-3-azabicyclo[3.2.0]heptane-2,4-dione; 2,2,2-trifluoroacetic acid] showed an IC50 of under 1 µM.
For Cc1cc(Cl)cc(-c2ccnc3cc(CN4C(=O)CCC4=O)sc23)c1O[C@@H]1C[C@H]2CN[C@@H]1C2 [Example 298, 1-[[7-[2-[[(1S,4R,5R)-3-azabicyclo[2.2.1]heptan-5-yl]oxy]-5-chloro-3-methyl-phenyl]thieno[3,2-b]pyridin-2-yl]methyl]pyrrolidine-2,5-dione], the IC50 was under 1 µM.
CCN1C[C@H](F)[C@H](Oc2c(C)cc(Cl)cc2-c2ccnc3cc(CN4C(=O)CCC4=O)sc23)C1 [Example 299, 1-[[7-[5-chloro-2-[(3R,4S)-1-ethyl-4-fluoro-pyrrolidin-3-yl]oxy-3-methyl-phenyl]thieno[3,2-b]pyridin-2-yl]methyl]pyrrolidine-2,5-dione] gave an IC50 of under 1 µM.
Cc1cc(Cl)cc(-c2ccnc3cc(CN4C(=O)C5CC5C4=O)sc23)c1O[C@@H]1CNC[C@@H]1F (stereo partly drawn) [Example 300, 3-[[7-[5-chloro-2-[(3R,4S)-4-fluoropyrrolidin-3-yl]oxy-3-methyl-phenyl]thieno[3,2-b]pyridin-2-yl]methyl]-3-azabicyclo[3.1.0]hexane-2,4-dione] showed an IC50 of under 1 µM.
Cc1cc(Cl)cc(-c2ccnc3cc(CN4C(=O)C5CC5C4=O)sc23)c1OC1CCNC1C (centres unmarked) [Example 301, 3-[[7-[5-chloro-3-methyl-2-(2-methylpyrrolidin-3-yl)oxy-phenyl]thieno[3,2-b]pyridin-2-yl]methyl]-3-azabicyclo[3.1.0]hexane-2,4-dione; 2,2,2-trifluoroacetic acid] was tested, and the IC50 was under 1 µM.
Compound Cc1cc(Cl)cc(-c2ccnc3cc(CN4C(=O)CCC4=O)sc23)c1O[C@@H]1CN(CCO)C[C@@H]1F [Example 302, 1-[[7-[5-chloro-2-[(3R,4S)-4-fluoro-1-(2-hydroxyethyl)pyrrolidin-3-yl]oxy-3-methyl-phenyl]thieno[3,2-b]pyridin-2-yl]methyl]pyrrolidine-2,5-dione] has an IC50 of under 1 µM.
For Cc1cc(Cl)cc(-c2ccnc3cc(CN4C(=O)CCC4=O)sc23)c1O[C@@H]1CCNC[C@@H]1C [Example 303, 1-[[7-[5-chloro-3-methyl-2-[[(3S,4R)-3-methyl-4-piperidyl]oxy]phenyl]thieno[3,2-b]pyridin-2-yl]methyl]pyrrolidine-2,5-dione], the IC50 was under 1 µM.
Compound Cc1cc(Cl)cc(-c2ccnc3cc(CN4C(=O)C5CC5C4=O)sc23)c1O[C@H]1CC[C@H](C)NC1 (stereo partly drawn) [Example 305, 3-[[7-[5-chloro-3-methyl-2-[[(3S,6S)-6-methyl-3-piperidyl]oxy]phenyl]thieno[3,2-b]pyridin-2-yl]methyl]-3-azabicyclo[3.1.0]hexane-2,4-dione; 2,2,2-trifluoroacetic acid] has an IC50 of under 1 µM.
Cc1cc(Cl)cc(-c2ncnc3cc(CN4C(=O)CCC4=O)sc23)c1O[C@@H]1CCNC[C@H]1F [Example 306, 1-[[4-[5-chloro-2-[[(3R,4R)-3-fluoro-4-piperidyl]oxy]-3-methyl-phenyl]thieno[3,2-d]pyrimidin-6-yl]methyl]pyrrolidine-2,5-dione dihydrochloride] gave an IC50 of under 1 µM.
In the case of CCN1CC[C@@H](Oc2c(C)cc(Cl)cc2-c2ccnc3cc(CN4C(=O)CCC4=O)sc23)[C@@H](C)C1 [Example 307, 1-[[7-[5-chloro-2-[[(3S,4R)-1-ethyl-3-methyl-4-piperidyl]oxy]-3-methyl-phenyl]thieno[3,2-b]pyridin-2-yl]methyl]pyrrolidine-2,5-dione], the IC50 is reported as under 1 µM.
Cc1cc(Cl)cc(-c2ccnc3cc(CN4C(=O)CCC4=O)sc23)c1O[C@@H]1CCN(C)C[C@@H]1C [Example 308, 1-[[7-[5-chloro-2-[[(3S,4R)-1,3-dimethyl-4-piperidyl]oxy]-3-methyl-phenyl]thieno[3,2-b]pyridin-2-yl]methyl]pyrrolidine-2,5-dione] was tested, and the IC50 was under 1 µM.
With Cc1cc(Cl)cc(-c2ncnc3cc(CN4C(=O)C5CC5C4=O)sc23)c1O[C@@H]1CCNC[C@H]1F (stereo partly drawn) [Example 309, 3-[[4-[5-chloro-2-[[(3R,4R)-3-fluoro-4-piperidyl]oxy]-3-methyl-phenyl]thieno[3,2-d]pyrimidin-6-yl]methyl]-3-azabicyclo[3.1.0]hexane-2,4-dione dihydrochloride] the IC50 was under 1 µM.
